Key:
Test in all cases: radiometric filter-binding kinase assay
[1] = molecular target: BRSK2 (human) (UniProt Q8IWQ3)
[2] = molecular target: STK3 (human) (UniProt Q13188)
[3] = molecular target: PLK1 (human) (UniProt P53350)
[4] = molecular target: SRC (human) (UniProt P12931)
[5] = test system: SGK1 (human), O00141 [S422D]
[6] = molecular target: MARK3 (human) (UniProt P27448)
[7] = molecular target: RPS6KA3 KD1 KD2 (human) (UniProt P51812)
[8] = molecular target: FLT1 (human) (UniProt P17948)
[9] = molecular target: CDK2 CCNA2 (human) (UniProt P20248+P24941)
[10] = molecular target: RPS6KA1 KD1 KD2 (human) (UniProt Q15418)
[11] = molecular target: RPS6KA5 KD1 KD2 (human) (UniProt O75582)
[12] = molecular target: CHEK1 (human) (UniProt O14757)
[13] = molecular target: MAPK3 (human) (UniProt P27361)
[14] = molecular target: CHEK2 (human) (UniProt O96017)
[15] = molecular target: PRKCZ (human) (UniProt Q05513)
[16] = molecular target: PRKCA (human) (UniProt P17252)
[17] = molecular target: PAK6 (human) (UniProt Q9NQU5)
[18] = molecular target: EEF2K (human) (UniProt O00418)
[19] = molecular target: MAPK1 (human) (UniProt P28482)
[20] = molecular target: MST4 (human) (UniProt Q9P289)

Chain of CHEK1 (human) (O14757 whole entry, looked up): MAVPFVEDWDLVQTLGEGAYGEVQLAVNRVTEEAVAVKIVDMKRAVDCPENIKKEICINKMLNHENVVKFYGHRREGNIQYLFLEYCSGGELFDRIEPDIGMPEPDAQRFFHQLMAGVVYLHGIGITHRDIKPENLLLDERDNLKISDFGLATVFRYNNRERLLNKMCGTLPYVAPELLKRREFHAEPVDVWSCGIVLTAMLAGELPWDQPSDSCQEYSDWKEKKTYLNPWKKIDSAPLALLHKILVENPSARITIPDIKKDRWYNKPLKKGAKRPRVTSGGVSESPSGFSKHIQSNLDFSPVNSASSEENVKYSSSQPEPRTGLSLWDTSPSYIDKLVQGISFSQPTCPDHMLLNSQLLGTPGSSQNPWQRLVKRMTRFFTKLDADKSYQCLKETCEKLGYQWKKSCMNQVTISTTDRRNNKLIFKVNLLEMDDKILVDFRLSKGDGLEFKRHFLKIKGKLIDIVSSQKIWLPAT
Chain of MAPK1 (human) (P28482 whole entry, looked up): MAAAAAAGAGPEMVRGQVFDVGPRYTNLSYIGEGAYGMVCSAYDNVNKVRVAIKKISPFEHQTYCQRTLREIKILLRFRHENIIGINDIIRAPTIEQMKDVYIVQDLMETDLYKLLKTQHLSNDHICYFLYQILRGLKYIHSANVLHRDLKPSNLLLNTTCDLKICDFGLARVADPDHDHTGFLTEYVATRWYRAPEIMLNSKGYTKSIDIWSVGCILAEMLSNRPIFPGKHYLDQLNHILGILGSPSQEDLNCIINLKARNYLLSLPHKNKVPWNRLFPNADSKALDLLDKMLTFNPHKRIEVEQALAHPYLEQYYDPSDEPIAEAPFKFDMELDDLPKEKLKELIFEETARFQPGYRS
Chain of MARK3 (human) (P27448 whole entry, looked up): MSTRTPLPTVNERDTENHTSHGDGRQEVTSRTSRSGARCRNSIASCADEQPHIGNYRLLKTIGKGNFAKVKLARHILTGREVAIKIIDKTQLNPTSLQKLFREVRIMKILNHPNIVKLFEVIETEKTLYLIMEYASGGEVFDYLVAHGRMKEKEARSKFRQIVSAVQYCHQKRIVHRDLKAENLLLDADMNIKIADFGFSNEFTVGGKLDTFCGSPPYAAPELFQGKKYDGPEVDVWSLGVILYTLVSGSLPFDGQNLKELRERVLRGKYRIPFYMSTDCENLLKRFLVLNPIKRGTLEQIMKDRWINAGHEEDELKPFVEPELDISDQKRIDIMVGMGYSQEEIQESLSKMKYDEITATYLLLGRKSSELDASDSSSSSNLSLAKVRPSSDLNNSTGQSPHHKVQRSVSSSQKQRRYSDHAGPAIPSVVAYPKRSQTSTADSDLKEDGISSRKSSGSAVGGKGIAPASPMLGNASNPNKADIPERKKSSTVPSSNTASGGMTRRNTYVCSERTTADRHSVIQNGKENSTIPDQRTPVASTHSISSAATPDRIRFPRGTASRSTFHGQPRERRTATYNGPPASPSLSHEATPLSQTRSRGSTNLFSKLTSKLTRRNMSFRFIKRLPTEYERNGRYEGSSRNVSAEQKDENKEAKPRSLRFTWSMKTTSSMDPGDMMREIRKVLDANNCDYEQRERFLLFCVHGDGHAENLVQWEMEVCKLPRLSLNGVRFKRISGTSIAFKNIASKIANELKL
Chain of RPS6KA5 KD1 KD2 (human) (O75582 whole entry, looked up): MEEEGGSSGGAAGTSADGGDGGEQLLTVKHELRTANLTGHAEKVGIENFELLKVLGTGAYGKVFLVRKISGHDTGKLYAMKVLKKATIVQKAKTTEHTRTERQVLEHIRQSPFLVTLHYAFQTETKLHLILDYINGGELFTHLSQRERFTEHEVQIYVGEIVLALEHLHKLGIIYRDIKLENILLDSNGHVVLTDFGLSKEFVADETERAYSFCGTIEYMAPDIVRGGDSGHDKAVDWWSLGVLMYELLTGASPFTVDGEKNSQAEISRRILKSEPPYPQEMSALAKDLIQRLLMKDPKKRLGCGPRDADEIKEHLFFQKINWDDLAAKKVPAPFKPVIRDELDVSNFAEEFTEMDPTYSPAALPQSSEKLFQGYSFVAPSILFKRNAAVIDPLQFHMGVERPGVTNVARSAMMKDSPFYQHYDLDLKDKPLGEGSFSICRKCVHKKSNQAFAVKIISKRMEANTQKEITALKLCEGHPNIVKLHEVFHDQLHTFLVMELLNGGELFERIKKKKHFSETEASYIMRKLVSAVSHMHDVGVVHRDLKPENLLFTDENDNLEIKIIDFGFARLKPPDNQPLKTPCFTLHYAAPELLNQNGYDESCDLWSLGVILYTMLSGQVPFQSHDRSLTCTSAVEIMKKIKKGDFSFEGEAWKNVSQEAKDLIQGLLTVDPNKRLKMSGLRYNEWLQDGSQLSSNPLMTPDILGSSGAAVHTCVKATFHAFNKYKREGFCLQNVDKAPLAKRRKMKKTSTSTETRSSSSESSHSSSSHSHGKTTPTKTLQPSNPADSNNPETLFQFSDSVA
Chain of FLT1 (human) (P17948 whole entry, looked up): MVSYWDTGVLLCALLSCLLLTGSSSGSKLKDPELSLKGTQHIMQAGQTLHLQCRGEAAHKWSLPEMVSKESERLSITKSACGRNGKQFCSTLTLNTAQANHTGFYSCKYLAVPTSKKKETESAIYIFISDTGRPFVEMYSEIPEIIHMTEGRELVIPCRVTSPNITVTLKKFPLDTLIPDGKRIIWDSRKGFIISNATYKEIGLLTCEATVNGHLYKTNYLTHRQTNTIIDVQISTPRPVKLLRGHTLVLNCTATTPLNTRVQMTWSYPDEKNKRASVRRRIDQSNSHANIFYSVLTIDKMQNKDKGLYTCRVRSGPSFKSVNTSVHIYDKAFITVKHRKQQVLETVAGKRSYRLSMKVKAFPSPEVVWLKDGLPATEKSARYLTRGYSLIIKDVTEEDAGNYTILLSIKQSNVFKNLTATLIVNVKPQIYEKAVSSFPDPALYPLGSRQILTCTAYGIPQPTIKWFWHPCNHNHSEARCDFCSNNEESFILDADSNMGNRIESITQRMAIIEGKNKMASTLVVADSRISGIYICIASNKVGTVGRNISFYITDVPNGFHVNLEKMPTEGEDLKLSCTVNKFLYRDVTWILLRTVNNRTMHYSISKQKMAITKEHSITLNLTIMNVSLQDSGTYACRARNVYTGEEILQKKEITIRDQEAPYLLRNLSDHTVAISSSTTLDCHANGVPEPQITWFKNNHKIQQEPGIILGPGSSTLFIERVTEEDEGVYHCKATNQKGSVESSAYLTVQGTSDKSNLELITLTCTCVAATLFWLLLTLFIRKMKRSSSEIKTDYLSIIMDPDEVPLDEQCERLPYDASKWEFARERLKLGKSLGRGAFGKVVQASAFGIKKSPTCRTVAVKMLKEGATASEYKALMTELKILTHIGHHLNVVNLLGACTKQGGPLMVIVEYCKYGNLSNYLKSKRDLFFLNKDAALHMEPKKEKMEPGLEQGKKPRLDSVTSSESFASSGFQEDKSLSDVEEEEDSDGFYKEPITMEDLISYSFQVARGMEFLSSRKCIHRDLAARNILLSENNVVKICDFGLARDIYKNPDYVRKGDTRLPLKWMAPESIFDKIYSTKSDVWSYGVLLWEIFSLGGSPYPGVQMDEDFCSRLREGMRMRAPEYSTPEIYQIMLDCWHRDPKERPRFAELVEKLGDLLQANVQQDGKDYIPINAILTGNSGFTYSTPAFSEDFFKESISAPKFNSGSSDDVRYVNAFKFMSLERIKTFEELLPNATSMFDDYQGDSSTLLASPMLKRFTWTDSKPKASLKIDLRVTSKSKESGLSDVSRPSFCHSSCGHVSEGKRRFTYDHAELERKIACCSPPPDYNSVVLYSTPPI
Chain of CHEK2 (human) (O96017 whole entry, looked up): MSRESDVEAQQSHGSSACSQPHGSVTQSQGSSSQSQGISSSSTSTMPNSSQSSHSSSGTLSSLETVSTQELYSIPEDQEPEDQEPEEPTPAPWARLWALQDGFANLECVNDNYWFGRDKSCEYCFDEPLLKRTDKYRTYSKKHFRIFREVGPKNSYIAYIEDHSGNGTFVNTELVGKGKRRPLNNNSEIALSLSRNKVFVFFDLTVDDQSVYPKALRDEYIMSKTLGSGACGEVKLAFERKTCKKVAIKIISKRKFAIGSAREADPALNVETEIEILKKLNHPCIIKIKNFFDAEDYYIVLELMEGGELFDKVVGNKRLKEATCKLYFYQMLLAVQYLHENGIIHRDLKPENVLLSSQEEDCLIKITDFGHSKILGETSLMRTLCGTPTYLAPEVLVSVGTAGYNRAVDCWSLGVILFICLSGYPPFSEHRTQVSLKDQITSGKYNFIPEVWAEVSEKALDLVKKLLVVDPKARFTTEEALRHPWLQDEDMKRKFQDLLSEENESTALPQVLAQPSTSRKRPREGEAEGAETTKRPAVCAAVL
Chain of RPS6KA3 KD1 KD2 (human) (P51812 whole entry, looked up): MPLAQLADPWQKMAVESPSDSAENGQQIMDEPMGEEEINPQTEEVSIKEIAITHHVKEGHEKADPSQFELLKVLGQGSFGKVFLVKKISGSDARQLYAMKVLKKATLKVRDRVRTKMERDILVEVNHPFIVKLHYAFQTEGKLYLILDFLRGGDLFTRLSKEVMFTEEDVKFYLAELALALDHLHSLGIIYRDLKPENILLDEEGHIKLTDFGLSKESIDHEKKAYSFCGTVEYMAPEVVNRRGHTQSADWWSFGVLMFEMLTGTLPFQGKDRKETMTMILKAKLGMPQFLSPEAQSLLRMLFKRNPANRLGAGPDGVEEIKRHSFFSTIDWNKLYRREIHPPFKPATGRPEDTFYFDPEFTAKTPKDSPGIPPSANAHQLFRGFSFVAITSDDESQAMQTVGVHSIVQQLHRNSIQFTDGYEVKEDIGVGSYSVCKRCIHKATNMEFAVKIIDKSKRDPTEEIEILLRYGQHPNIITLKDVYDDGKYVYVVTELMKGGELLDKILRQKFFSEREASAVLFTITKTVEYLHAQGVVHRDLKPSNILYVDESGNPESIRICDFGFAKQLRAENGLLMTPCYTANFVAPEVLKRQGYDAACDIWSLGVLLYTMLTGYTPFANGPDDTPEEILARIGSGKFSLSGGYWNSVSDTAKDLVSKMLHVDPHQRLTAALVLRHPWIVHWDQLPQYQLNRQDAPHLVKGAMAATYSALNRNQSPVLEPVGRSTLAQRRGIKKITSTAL

For CCc1cncnc1N1CCN(Cc2nc3cc(C(F)(F)F)ccc3[nH]2)CC1, the residual activity ([1]; compound 0.1 µM) was 88%, the residual activity ([1]; compound 1.0 µM) was 84% and the residual activity ([1]; compound 10.0 µM) was 83%. The residual activity ([2]; compound 0.1 µM) was 95%, the residual activity ([2]; compound 1.0 µM) was 85% and the residual activity ([2]; compound 10.0 µM) was 77%. For the same molecule, the residual activity ([3]; compound 0.1 µM) was 98%, the residual activity ([3]; compound 1.0 µM) was 87% and the residual activity ([3]; compound 10.0 µM) was 88%. For the same molecule, the residual activity ([4]; compound 0.1 µM) was 103%, the residual activity ([4]; compound 10.0 µM) was 92% and the residual activity ([5]; compound 0.1 µM) was 106%. It also gave a residual activity ([5]; compound 1.0 µM) of 74%, a residual activity ([5]; compound 10.0 µM) of 65% and a residual activity ([6]; compound 0.1 µM) of 94%. It also gave a residual activity ([6]; compound 1.0 µM) of 83%, a residual activity ([6]; compound 10.0 µM) of 82% and a residual activity ([7]; compound 0.1 µM) of 86%. It also gave a residual activity ([7]; compound 1.0 µM) of 67%, a residual activity ([7]; compound 10.0 µM) of 25% and a residual activity ([8]; compound 0.1 µM) of 97%. The residual activity ([8]; compound 1.0 µM) was 83%, the residual activity ([8]; compound 10.0 µM) was 37% and the residual activity ([9]; compound 1.0 µM) was 101%. It also gave a residual activity ([9]; compound 10.0 µM) of 88%, a residual activity ([10]; compound 0.1 µM) of 46% and a residual activity ([10]; compound 1.0 µM) of 33%. For the same molecule, the residual activity ([10]; compound 10.0 µM) was 0%, the residual activity ([11]; compound 0.1 µM) was 80% and the residual activity ([11]; compound 1.0 µM) was 34%. The residual activity ([11]; compound 10.0 µM) was 6%, the residual activity ([12]; compound 0.1 µM) was 90% and the residual activity ([12]; compound 1.0 µM) was 83%. For the same molecule, the residual activity ([12]; compound 10.0 µM) was 83%, the residual activity ([13]; compound 0.1 µM) was 93% and the residual activity ([13]; compound 1.0 µM) was 85%. For the same molecule, the residual activity ([14]; compound 0.1 µM) was 101%, the residual activity ([14]; compound 1.0 µM) was 73% and the residual activity ([14]; compound 10.0 µM) was 72%. For the same molecule, the residual activity ([15]; compound 0.1 µM) was 78%, the residual activity ([15]; compound 1.0 µM) was 75% and the residual activity ([15]; compound 10.0 µM) was 70%. The residual activity ([16]; compound 0.1 µM) was 119%, the residual activity ([16]; compound 1.0 µM) was 106% and the residual activity ([16]; compound 10.0 µM) was 62%. For the same molecule, the residual activity ([17]; compound 0.1 µM) was 99%, the residual activity ([17]; compound 1.0 µM) was 83% and the residual activity ([17]; compound 10.0 µM) was 86%. It also gave a residual activity ([18]; compound 0.1 µM) of 90%, a residual activity ([18]; compound 1.0 µM) of 73% and a residual activity ([18]; compound 10.0 µM) of 78%. For the same molecule, the residual activity ([19]; compound 0.1 µM) was 93%, the residual activity ([19]; compound 1.0 µM) was 85% and the residual activity ([19]; compound 10.0 µM) was 86%. For the same molecule, the residual activity ([20]; compound 0.1 µM) was 87%, the residual activity ([20]; compound 1.0 µM) was 77% and the residual activity ([20]; compound 10.0 µM) was 46%.
Molecule NC(=O)Nc1ccc2c(c1)/C(=C/c1cc(-c3cccnc3)c[nH]1)C(=O)N2 has a residual activity ([1]; compound 0.1 µM) of 13%, a residual activity ([1]; compound 1.0 µM) of 10% and a residual activity ([1]; compound 10.0 µM) of 18%. It also gave a residual activity ([2]; compound 0.1 µM) of 8%, a residual activity ([2]; compound 1.0 µM) of 2% and a residual activity ([2]; compound 10.0 µM) of 0%. For the same molecule, the residual activity ([3]; compound 0.1 µM) was 86%, the residual activity ([3]; compound 1.0 µM) was 42% and the residual activity ([3]; compound 10.0 µM) was 18%. The residual activity ([4]; compound 0.1 µM) was 41%, the residual activity ([4]; compound 1.0 µM) was 7% and the residual activity ([4]; compound 10.0 µM) was 1%. For the same molecule, the residual activity ([5]; compound 0.1 µM) was 77%, the residual activity ([5]; compound 1.0 µM) was 32% and the residual activity ([5]; compound 10.0 µM) was 6%. It also gave a residual activity ([6]; compound 0.1 µM) of 16%, a residual activity ([6]; compound 1.0 µM) of 5% and a residual activity ([6]; compound 10.0 µM) of 3%. It also gave a residual activity ([7]; compound 0.1 µM) of 38%, a residual activity ([7]; compound 1.0 µM) of 32% and a residual activity ([7]; compound 10.0 µM) of 22%. It also gave a residual activity ([8]; compound 0.1 µM) of 7%, a residual activity ([8]; compound 1.0 µM) of 3% and a residual activity ([8]; compound 10.0 µM) of 1%. For the same molecule, the residual activity ([9]; compound 0.1 µM) was 63%, the residual activity ([9]; compound 1.0 µM) was 14% and the residual activity ([9]; compound 10.0 µM) was 6%. For the same molecule, the residual activity ([10]; compound 0.1 µM) was 24%, the residual activity ([10]; compound 1.0 µM) was 10% and the residual activity ([10]; compound 10.0 µM) was 5%. For the same molecule, the residual activity ([11]; compound 0.1 µM) was 98%, the residual activity ([11]; compound 1.0 µM) was 73% and the residual activity ([11]; compound 10.0 µM) was 30%. It also gave a residual activity ([12]; compound 0.1 µM) of 85%, a residual activity ([12]; compound 1.0 µM) of 4% and a residual activity ([12]; compound 10.0 µM) of 1%. The residual activity ([13]; compound 0.1 µM) was 71%, the residual activity ([13]; compound 10.0 µM) was 4% and the residual activity ([14]; compound 0.1 µM) was -1%. The residual activity ([14]; compound 1.0 µM) was -5%, the residual activity ([14]; compound 10.0 µM) was 1% and the residual activity ([15]; compound 0.1 µM) was 85%. It also gave a residual activity ([15]; compound 1.0 µM) of 66%, a residual activity ([15]; compound 10.0 µM) of 21% and a residual activity ([16]; compound 0.1 µM) of 106%. The residual activity ([16]; compound 1.0 µM) was 83%, the residual activity ([16]; compound 10.0 µM) was 27% and the residual activity ([17]; compound 0.1 µM) was 86%. It also gave a residual activity ([17]; compound 1.0 µM) of 77%, a residual activity ([17]; compound 10.0 µM) of 38% and a residual activity ([18]; compound 0.1 µM) of 102%. For the same molecule, the residual activity ([18]; compound 1.0 µM) was 86%, the residual activity ([18]; compound 10.0 µM) was 116% and the residual activity ([19]; compound 0.1 µM) was 81%. It also gave a residual activity ([19]; compound 1.0 µM) of 41%, a residual activity ([19]; compound 10.0 µM) of 16% and a residual activity ([20]; compound 1.0 µM) of 18%. It also gave a residual activity ([20]; compound 10.0 µM) of 21%.

— the kinase profiling compilation of Christmann-Franck et al. (2016)
